Measurements reported in patent publication US7400979B2, “Method of identifying inhibitors of Lck” (Abbott Laboratories, priority 2001, dated 2008).

Key:
[1] = target: Lck protein tyrosine kinase (Homo sapiens, UniProt P06239); assay: Lck inhibition assay: ELISA for protein tyrosine kinases; type: biochemical; details: poly(Glu4Tyr) substrate, 5 μM ATP, 5% DMSO, result in words
From the text: (§1) The disclosed protocol was adapted for determining activity with respect to a specific protein tyrosine kinase, e.g. Lck. […] Adaptation of these protocols for determining the activity of a compound against other protein tyrosine kinases, for example Hck, are well within the abilities of those skilled in the art. […] The following procedure was used to assay the inhibitory effect of compounds of this invention on Lck protein tyrosine kinase activity:
Store on ice. […] Store on ice.

Hck = Hck (Homo sapiens, UniProt P08631); assay: ELISA for protein tyrosine kinases adapted to Hck (inhibitor selectivity); type: biochemical; details: result in words; b177 defines selective as IC50 for Lck at least 10-fold lower than for the related protein
From the text: as §1, with “activity: […]” for “activity:”

Sequence of Lck protein tyrosine kinase (P06239 whole entry): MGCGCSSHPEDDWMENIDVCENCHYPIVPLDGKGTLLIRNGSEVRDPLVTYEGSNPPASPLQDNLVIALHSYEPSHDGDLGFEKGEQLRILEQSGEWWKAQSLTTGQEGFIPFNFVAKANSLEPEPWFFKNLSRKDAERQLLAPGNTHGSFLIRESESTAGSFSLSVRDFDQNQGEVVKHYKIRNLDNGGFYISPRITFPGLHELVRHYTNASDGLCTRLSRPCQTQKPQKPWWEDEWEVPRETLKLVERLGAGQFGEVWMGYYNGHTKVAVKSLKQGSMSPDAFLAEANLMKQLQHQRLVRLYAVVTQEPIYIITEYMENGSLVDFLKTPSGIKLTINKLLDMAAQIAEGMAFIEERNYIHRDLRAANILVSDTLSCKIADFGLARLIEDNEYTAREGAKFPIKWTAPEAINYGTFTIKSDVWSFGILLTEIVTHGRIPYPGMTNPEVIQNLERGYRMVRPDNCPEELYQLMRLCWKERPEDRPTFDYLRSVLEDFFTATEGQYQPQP
Sequence of Hck (P08631 whole entry): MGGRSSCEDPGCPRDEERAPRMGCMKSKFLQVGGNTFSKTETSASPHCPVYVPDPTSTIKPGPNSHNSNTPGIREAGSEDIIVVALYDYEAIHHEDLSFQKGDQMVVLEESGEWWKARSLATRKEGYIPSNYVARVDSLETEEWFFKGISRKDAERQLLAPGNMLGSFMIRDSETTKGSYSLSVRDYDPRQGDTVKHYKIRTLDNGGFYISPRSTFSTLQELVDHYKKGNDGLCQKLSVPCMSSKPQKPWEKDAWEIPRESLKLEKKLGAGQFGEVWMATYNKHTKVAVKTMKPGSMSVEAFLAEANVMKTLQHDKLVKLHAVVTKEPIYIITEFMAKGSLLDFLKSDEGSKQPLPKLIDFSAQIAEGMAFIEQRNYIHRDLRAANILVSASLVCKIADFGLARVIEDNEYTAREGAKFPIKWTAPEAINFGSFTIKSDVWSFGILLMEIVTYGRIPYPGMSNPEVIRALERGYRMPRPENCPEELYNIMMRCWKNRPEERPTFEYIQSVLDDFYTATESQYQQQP

SMILES: CN1CCN([C@H]2CC[C@H](n3nc(-c4ccc(Nc5n[nH]c6ccccc56)cc4)c4c(N)ncnc43)CC2)CC1 [inhibitor 15, trans-3-[4-(1H-3-indazolylamino)phenyl]-1-[4-(4-methylpiperazino)cyclohexyl]-1H-pyrazolo[3,4-d]pyrimidin-4-amine]
- Lck inhibition (in vitro potency) [1]: potent inhibitor of human Lck

SMILES: CNCCCN(C)C/C=C/c1[nH]c(=O)c2c(ccc3nc(Nc4c(Cl)cccc4Cl)n(C)c32)c1C [inhibitor 13, 2-(2,6-dichloroanilino)-1,6-dimethyl-7-((E)-3-{methyl[3-(methylamino)propyl]amino}-1-propenyl)-8,9-dihydro-1H-imidazo[4,5-h]isoquinolin-9-one]
- Lck inhibition (in vitro potency) [1]: potent inhibitor of Lck
- selectivity for Lck over Hck (Hck): inhibit Lck selectively over Hck
